Data taken from ChEMBL document CHEMBL1201862, “PubChem BioAssay data set” (2004).
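All cell lines were grown in 96-well plates and treated with compound for 48 hours. At the GI50, growth is halved.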 Calls of active or inactive are those of the source. Rule as the data show it: active = GI50 up to about 1.1 µM and inactive = higher.

What was measured:
Experiment in all cases: NCI tumour cell line growth inhibition, 48 h
[1] = system: RXF 631
[2] = system: DLD-1
[3] = system: DMS-114
[4] = system: DMS-273
[5] = system: XF498
[6] = system: M19-MEL
[7] = system: KM-20L2
[8] = system: SNB-78
[9] = system: HOP-18

SMILES | GI50 [1] | GI50 [2] | GI50 [3] | GI50 [4] | GI50 [5] | GI50 [6] | GI50 [7] | GI50 [8] | GI50 [9]
CN(Cc1ccccc1)C(=O)c1ccccc1C(=O)O | > 100 µM (inactive) | > 100 µM (inactive) | > 100 µM (inactive) | > 100 µM (inactive) | > 100 µM (inactive) | > 100 µM (inactive) | > 100 µM (inactive) | – | –
Nc1nc(N)c(CCCCc2ccccc2)c(N)n1 | – | > 100 µM (inactive) | > 100 µM (inactive) | > 100 µM (inactive) | > 100 µM (inactive) | > 100 µM (inactive) | > 100 µM (inactive) | – | –
CCOC(=O)N1CCc2cc(OC)c(OC)c3c2c1cc1cc(OC)c(OC)cc13 | 2.42 µM (inactive) | 1.3 µM (inactive) | 1.55 µM (inactive) | 0.667 µM (active) | 0.67 µM (active) | 1.88 µM (inactive) | 1.36 µM (inactive) | 16.1 µM (inactive) | 28.1 µM (inactive)
O=C1/C=C(/c2ccc(O)cc2)[C@@H](O)Cc2ccc(O)cc2O1 | 38.2 µM (inactive) | > 100 µM (inactive) | 51.3 µM (inactive) | – | – | > 100 µM (inactive) | > 100 µM (inactive) | 41.8 µM (inactive) | –
COc1ccc2oc3c(OC)c(OC)c(OC)cc3c(=O)c2c1 | > 100 µM (inactive) | > 100 µM (inactive) | > 100 µM (inactive) | > 100 µM (inactive) | > 100 µM (inactive) | > 100 µM (inactive) | > 100 µM (inactive) | 69.7 µM (inactive) | 0.232 µM (active)
N[C@H]1C2C3CC4C5CC(C42)C1(c1ccccc1)C53 (stereo not given in full) | – | > 100 µM (inactive) | > 100 µM (inactive) | > 100 µM (inactive) | > 100 µM (inactive) | > 100 µM (inactive) | > 100 µM (inactive) | > 100 µM (inactive) | > 100 µM (inactive)
C=Nc1ccc([N+](=O)[O-])cc1 | – | > 100 µM (inactive) | > 100 µM (inactive) | > 100 µM (inactive) | > 100 µM (inactive) | > 100 µM (inactive) | > 100 µM (inactive) | > 100 µM (inactive) | > 26.1 µM (inactive)
Cc1cc(N(CCC#N)CCC#N)ccc1/C=C(\NC(=O)/C=C/c1ccccc1)NC(=O)Nc1ccc(Cl)cc1 | – | 75 µM (inactive) | 17.3 µM (inactive) | 5.04 µM (inactive) | > 100 µM (inactive) | 93.1 µM (inactive) | 5.37 µM (inactive) | > 10 µM (inactive) | –
N/N=C1\C(=O)N(C2CCCCCC2)C(=O)C1C(=O)NC1CCCCCC1 (stereo not given) | – | 41.5 µM (inactive) | – | – | – | 37.9 µM (inactive) | 19.5 µM (inactive) | 21.8 µM (inactive) | 31 µM (inactive)
CCC1=CCC(P(=O)(c2ccccc2)c2ccccc2)CC1C (stereo not given) | – | – | 32.9 µM (inactive) | 36.3 µM (inactive) | 40.1 µM (inactive) | 39.5 µM (inactive) | 37.1 µM (inactive) | 61.2 µM (inactive) | 22.8 µM (inactive)
C/C(CN1C(=O)c2ccccc2C1=O)=N\NS(=O)(=O)c1ccc(C)cc1 | – | > 100 µM (inactive) | – | > 100 µM (inactive) | – | > 100 µM (inactive) | > 100 µM (inactive) | > 100 µM (inactive) | > 100 µM (inactive)
CCCCC/C=C1\CCC(CN2CCOCC2)C1=O (stereo not given) | 12.1 µM (inactive) | 5.94 µM (inactive) | 13.6 µM (inactive) | – | 17.4 µM (inactive) | 19 µM (inactive) | 13.8 µM (inactive) | 12.6 µM (inactive) | 14.2 µM (inactive)
COC(=O)[C@@H]1c2[nH]c3ccccc3c2C[C@@H]2c3ccccc3NC(=O)[C@@H]21 | – | > 100 µM (inactive) | > 100 µM (inactive) | > 57.5 µM (inactive) | > 100 µM (inactive) | > 89.3 µM (inactive) | > 100 µM (inactive) | > 76.4 µM (inactive) | –
C[C@]12CCC(=O)C(O)=C1CC[C@@H]1C2CC[C@]2(C)NC(=O)CCC12 (stereo not given in full) | > 100 µM (inactive) | – | > 100 µM (inactive) | > 100 µM (inactive) | > 100 µM (inactive) | > 100 µM (inactive) | > 100 µM (inactive) | > 100 µM (inactive) | > 100 µM (inactive)
C/C(N)=[N+](/C)[O-] | > 100 µM (inactive) | 46.6 µM (inactive) | 18.4 µM (inactive) | – | > 100 µM (inactive) | 40.5 µM (inactive) | > 100 µM (inactive) | > 100 µM (inactive) | > 100 µM (inactive)
CCOC(=O)C(C)(c1cn(C)c2ccccc12)c1cn(C)c2ccccc12 | 50.8 µM (inactive) | > 100 µM (inactive) | 79.6 µM (inactive) | > 100 µM (inactive) | 32.3 µM (inactive) | > 100 µM (inactive) | > 100 µM (inactive) | 70 µM (inactive) | –
Cc1cc2c(=O)cc(-c3ccc(Cl)c(Cl)c3)oc2c(C(=O)O)c1C | – | > 100 µM (inactive) | > 100 µM (inactive) | – | > 100 µM (inactive) | > 100 µM (inactive) | > 100 µM (inactive) | > 100 µM (inactive) | > 100 µM (inactive)

SMILES | GI50 [1] | GI50 [2] | GI50 [3] | GI50 [4] | GI50 [5] | GI50 [6] | GI50 [7] | GI50 [8] | GI50 [9]
CN1C(=O)C(C)(C)NS1(=O)=O | > 100 µM (inactive) | > 100 µM (inactive) | > 100 µM (inactive) | > 100 µM (inactive) | > 100 µM (inactive) | > 100 µM (inactive) | > 100 µM (inactive) | > 100 µM (inactive) | –
CCc1cccc(C)c1NC(=O)C(=O)Cc1nc2ccccc2s1 | > 100 µM (inactive) | > 100 µM (inactive) | > 100 µM (inactive) | > 100 µM (inactive) | – | > 100 µM (inactive) | > 100 µM (inactive) | > 100 µM (inactive) | > 100 µM (inactive)
COc1cccc2c1C(=O)c1c(O)c3c(c(O)c1C2=O)C[C@@](O)(C(=O)CO)C[C@@H]3OC1CC(N)C(OC)C(C)O1 (stereo not given in full) | 0.0329 µM (active) | 0.0667 µM (active) | – | 0.0122 µM (active) | < 0.01 µM (active) | – | 0.148 µM (active) | 0.207 µM (active) | 0.156 µM (active)
COc1ccc(C(=O)N/N=C/c2c(C)n(C)n(-c3ccccc3)c2=O)cc1 | – | > 100 µM (inactive) | > 100 µM (inactive) | > 100 µM (inactive) | > 100 µM (inactive) | > 100 µM (inactive) | > 100 µM (inactive) | > 100 µM (inactive) | > 100 µM (inactive)
O=C(CC1(O)C(=O)Nc2ccccc21)c1cccc(O)c1 (stereo not given) | > 100 µM (inactive) | > 100 µM (inactive) | > 100 µM (inactive) | > 100 µM (inactive) | 42.5 µM (inactive) | > 100 µM (inactive) | > 100 µM (inactive) | > 100 µM (inactive) | –
C#CC1(O)CCC2C3CCc4cc(Oc5nc(F)nc(-c6c7ccccc7c7sc8ccccc8n67)n5)ccc4C3CC[C@@]21C (stereo not given in full) | – | > 100 µM (inactive) | – | 75.5 µM (inactive) | > 100 µM (inactive) | > 100 µM (inactive) | > 100 µM (inactive) | – | –
C/N=N/N(C)C(=O)NC | – | > 100 µM (inactive) | > 100 µM (inactive) | – | – | > 100 µM (inactive) | > 100 µM (inactive) | – | > 100 µM (inactive)
CN(C)C(=S)/N=c1\ssc(=S)n1Cc1ccccn1 | 3.7 µM (inactive) | 4.45 µM (inactive) | – | 1.64 µM (inactive) | 8.95 µM (inactive) | 2.36 µM (inactive) | 1.94 µM (inactive) | 30.2 µM (inactive) | 9.38 µM (inactive)
c1cncc(C2N3CCCCC3[C@@H]3c4[nH]c5ccccc5c4CCN23)c1 (stereo not given in full) | > 100 µM (inactive) | > 100 µM (inactive) | – | > 100 µM (inactive) | > 100 µM (inactive) | > 100 µM (inactive) | > 100 µM (inactive) | 87.1 µM (inactive) | > 100 µM (inactive)
Cc1ccc(C(=O)N(Cc2ccccc2)Cc2ccccc2)cc1/N=N/N(C)C | – | 21.4 µM (inactive) | – | 41.8 µM (inactive) | – | – | – | 27.2 µM (inactive) | –
COC1=CC(=O)C2[C@H]3Cc4ccccc4[C@H]3C2(C)C1=O (stereo not given in full) | > 100 µM (inactive) | > 100 µM (inactive) | – | > 100 µM (inactive) | 51.5 µM (inactive) | 83.2 µM (inactive) | 77.3 µM (inactive) | 78 µM (inactive) | –
COC(=O)[C@@H]1C[C@H](c2ccc(OC)c(OC)c2)OC1=O.COC(=O)[C@H]1C[C@H](c2ccc(OC)c(OC)c2)OC1=O | > 100 µM (inactive) | > 100 µM (inactive) | > 100 µM (inactive) | > 100 µM (inactive) | > 100 µM (inactive) | > 100 µM (inactive) | > 100 µM (inactive) | > 100 µM (inactive) | –
COc1cc(C(=O)N[C@H]2CCc3cc(OC)c(OC)c(OC)c3-c3ccc(SC)c(=O)cc32)cc(OC)c1OC | 0.0338 µM (active) | 0.00731 µM (active) | 0.00775 µM (active) | 0.00298 µM (active) | 0.024 µM (active) | 0.0225 µM (active) | 0.00475 µM (active) | 0.0025 µM (active) | –
CN(C)CCNc1ccc2nnn3c4ccc(Cl)cc4c(=O)c1c23 | 2.37 µM (inactive) | 3.21 µM (inactive) | – | 2.82 µM (inactive) | 8.73 µM (inactive) | 3.51 µM (inactive) | 2.86 µM (inactive) | 11.9 µM (inactive) | –
CC(NC(=O)/C(C#N)=C/c1ccc2[nH]ccc2c1)c1ccccc1 (stereo not given) | – | 19.1 µM (inactive) | 22.3 µM (inactive) | 23.5 µM (inactive) | – | – | 18.6 µM (inactive) | 38.7 µM (inactive) | 24.3 µM (inactive)
CCCOc1ccc(/C=C\c2cc(OC)c(OC)c(OC)c2)cc1 | 37.1 µM (inactive) | 87.7 µM (inactive) | 34.4 µM (inactive) | 36.3 µM (inactive) | 62.2 µM (inactive) | 67.8 µM (inactive) | 33 µM (inactive) | > 100 µM (inactive) | > 100 µM (inactive)
COC(COC(N)=O)C1=C(N2CC2)C(=O)C(C)=C(N2CC2)C1=O (stereo not given) [CARBOQUONE] | – | 0.113 µM (active) | 0.063 µM (active) | < 0.01 µM (active) | 0.154 µM (active) | 0.0968 µM (active) | 0.0608 µM (active) | 0.574 µM (active) | 0.199 µM (active)
